Strand notation (5' to 3'): a small letter for the sugar, then the base; units joined by * are phosphorothioate-linked, units joined directly phosphodiester-linked; [ ] holds rarer units or linkages, { } end groups; capitals alone tell only the bases. [PALM-N] = nucleoside bearing a 2'-(butylacetamido)-palmitamide (C16 palmitic acid) substituent (N: the base); e = 2'-O-(2-methoxyethyl) (MOE); l = locked nucleic acid (LNA); [5mC] = 5-methylcytosine; d = 2'-deoxy (DNA)
Experiments:
[1] = Transaminase levels, liver and spleen weights, body weight (Example 6, Table 47); assay type: in vivo, mouse; details: 8 μmol/kg single i.p.; 72 h; Balb/c mice
Text: (§1) Each dose group consisted of four animals. Shown in Table 46 are the sequences and motifs of the PTEN antisense compounds used in this study. Bolded residues indicate 2′-O-methoxyethyl moieties (2′-MOE) and italicized residues indicate Methyleneoxy BNA nucleotides. Each antisense compound comprises phosphorothioate linkages throughout. In addition, the cytosine residues in the gap of ISIS 384073 and in the wings of ISIS 392056, ISIS 392057, ISIS 392061 and ISIS 392063 are replaced with 5-methylcytosines. Antisense compounds target published PTEN nucleic acids, including Genbank Accession No. U92437.1 (SEQ ID NO: 13).
(§2) Mice were sacrificed 72 hours following injection to determine serum transaminase levels (Table 47); liver and spleen weights (Table 47); and PTEN mRNA levels in liver, kidney and fat (Table 48), according to procedures described herein and well know to one of ordinary skill in the art.

PTEN mRNA = PTEN mRNA levels in liver, kidney and fat, Balb/c mice, single 8 μmol/kg i.p. (Example 6, Table 48); assay type: in vivo, mouse; details: 8 μmol/kg single i.p., 72 h, saline = 100
Text: as §1, §2

[2] = Plasma glucose in ZDF rats, once a week for twelve weeks (Example 16, Table 71); assay type: in vivo, rat
Method: (§3) ISIS 388625, 388626 and control oligo ISIS 388628 were analyzed for their effect on ZDF rat plasma glucose levels and HbA1c. The leptin receptor deficient Zucker diabetic fatty (ZDF) rat is a useful model for the investigation of type 2 diabetes. Diabetes develops spontaneously in these male rats at ages 8-10 weeks, and is associated with hyperphagia, polyuria, polydipsia, and impaired weight gain, symptoms which parallel the clinical symptoms of diabetes (Phillips M S, et al., 1996, Nat Genet. 13, 18-19). Six week old ZDF rats were injected intraperitoneally with short antisense compound at a dose of 400 nM/kg once a week for twelve weeks. Data are illustrated in Tables 71 and 72.

[3] = HbA1c status in ZDF rats (Example 16, Table 72); assay type: in vivo, rat; details: for Percentage HbA1c on specific dates, Day 40 / Percentage HbA1c on specific dates, Day 55 / Percentage HbA1c on specific dates, Day 68: 400 nM/kg i.p. once a week for twelve weeks; for Percentage HbA1c on specific dates, Day 40: Day 40, p < 0.001; for Percentage HbA1c on specific dates, Day 55: Day 55, p < 0.001; for Percentage HbA1c on specific dates, Day 68: Day 68, p < 0.001
Method: as §3

ApoB mRNA = ApoB mRNA in liver of Balb/c mice, palmitic acid conjugates, single i.p. dose, with ED50 (Example 30, Table 95); assay type: in vivo, mouse; details: for % Inhib: Balb/c mice, about 48 hours after dose, relative to saline-treated controls
Method: 0.4, and 0.16 umol/kg. Each dose group consisted of four animals. A 5-10-5 MOE gapmer was used for a control treatment. Mice were sacrificed approximately 48 hours following the final dose. Liver tissue was collected for RNA isolation, and blood was collected for serum chemistry analyses. ApoB mRNA levels were measured by real-time PCR as described herein. ApoB mRNA levels were normalized to RNA levels as determined by RIBOGREEN, and are presented in Table 95 as percent inhibition relative to ApoB mRNA levels in saline-treated control animals.
At the 2.5 umol/kg dose, ApoB inhibition by the short antisense compounds was greater than observed with a 5-10-5 MOE gapmer at an equivalent dose. […] Triglycerides were reduced at the 2.5 and […] doses of ISIS 387462 and ISIS 391872.

mouse SGLT2 mRNA [4] = assay: Mouse SGLT2 mRNA levels in kidney, additional 1-10-1 and 2-8-2 MOE gapmers, Balb/c mice (Example 15, Table 68); assay type: in vivo
Method: 1-10-1 and 2-8-2 MOE gapmer short antisense compounds were designed to target different regions of the mouse SGLT2 RNA but have complementarity across species. […] All cytidine residues are 5-methylcytidines.
The short antisense compounds were analyzed for their effect on mouse SGLT2 mRNA levels in vivo. Data was taken from three experiments in which male 6-week old Balb/c mice were dosed twice per week for three weeks with 0.5, 0.1, or 0.02 umol/kg of either a 1-10-1 or 2-8-2 MOE gapmer given by intraperitoneal injection. Mice were sacrificed 48 hours following last administration and evaluated for SGLT2 levels in kidney. Target levels were determined by RT, real-time PCR as described by other examples herein. PCR results were normalized to an internal ISIS control.

mouse SGLT2 mRNA [5] = assay: Mouse SGLT2 mRNA levels in kidney, MOE versus Methyleneoxy BNA gapmers, Balb/c mice (Example 15, Table 69); assay type: in vivo
Method: The effect of ISIS 379692 1-10-1 MOE gapmer and ISIS 388625 2-8-2 MOE gapmer are compared with the effect of ISIS 392170 1-10-1 Methyleneoxy BNA Gapmer and ISIS 392173 2-8-2 Methyleneoxy BNA Gapmer (see Table 69) on mouse SGLT2 mRNA levels in vivo. Data are taken from three experiments in which male 6-week old Balb/c mice were dosed twice per week for three weeks with 5, 25 and 125 nmol/kg of either the ISIS 379692 1-10-1 MOE gapmer or the ISIS 388625 2-8-2 MOE gapmer given by intraperitoneal injection. Mice were sacrificed 48 hours following last administration and evaluated for SGLT2 mRNA levels in kidney. Target levels were determined by RT, real-time PCR as described by other examples herein. PCR results were normalized to an internal ISIS control. The data are expressed as percent change (“+” indicates an increase, “−” indicates a decrease) relative to saline treated animals and are illustrated in Table 69.

[6] = Day 10, 400 nM/kg i.p. once a week for twelve weeks
[7] = Day 40, 400 nM/kg i.p. once a week for twelve weeks
[8] = Day 55, 400 nM/kg i.p. once a week for twelve weeks
[9] = Day 66, 400 nM/kg i.p. once a week for twelve weeks
[10] = compared to PBS and control treated animals
[11] = 5 nmol/kg i.p. twice per week for three weeks
[12] = 25 nmol/kg i.p. twice per week for three weeks
[13] = 125 nmol/kg i.p. twice per week for three weeks

In the case of “141923 (antisense CCTTCCCTGAAGGTTCCTCC; sugars from the 5' end e5 d10 e5, all phosphorothioate, methylation of C not given here) [compound 141923]”, the ALT [1] is reported as 34.8 IU/L, the AST [1] is reported as 89.5 IU/L and the “Liver Weight” value [1] is reported as 101 % Saline. The “Spleen Weight” value [1] was 108 % Saline, the “% PTEN mRNA levels in Fat” value (PTEN mRNA) was 118% and the “% PTEN mRNA levels in Kidney” value (PTEN mRNA) was 133%. The “% PTEN mRNA levels in Liver” value (PTEN mRNA) was 102%.
With “384073 (antisense lG*lC*lT*dA*dG*d[5mC]*d[5mC]*dT*d[5mC]*dT*dG*dG*dA*lT*lT*lT) [compound 384073]” the ALT [1] was 29.3 IU/L, the AST [1] was 57.8 IU/L and the “Liver Weight” value [1] was 115 % Saline. The “Spleen Weight” value [1] was 111 % Saline, the “% PTEN mRNA levels in Fat” value (PTEN mRNA) was 77% and the “% PTEN mRNA levels in Kidney” value (PTEN mRNA) was 74%. For the same substance, the “% PTEN mRNA levels in Liver” value (PTEN mRNA) was 24%.
For “388625 (antisense eT*eG*dT*dT*d[5mC]*d[5mC]*dA*dG*d[5mC]*d[5mC]*e[5mC]*eA) [compound 388625]”, the Plasma glucose levels [2, 6] was 435.5 mg/dL, the Plasma glucose levels [2, 7] was 278.7 mg/dL and the Plasma glucose levels [2, 8] was 213.8 mg/dL. For the same substance, the Plasma glucose levels [2, 9] was 325.5 mg/dL, the “Percentage HbA1c on specific dates, Day 40” value (“Percentage HbA1c … Day 40” below) [3] was 6.5% and the “Percentage HbA1c on specific dates, Day 55” value (shortened to “Percentage HbA1c … Day 55”) [3] was 5.8%. For the same substance, the “Percentage HbA1c on specific dates, Day 68” value (“Percentage HbA1c … Day 68” for short) [3] was 4.3%.
In the case of “388628 (antisense eT*eA*dG*d[5mC]*d[5mC]*dG*d[5mC]*d[5mC]*d[5mC]*dA*e[5mC]*eA) [compound 388628]”, the Plasma glucose levels [2, 6] is reported as 436.0 mg/dL, the Plasma glucose levels [2, 7] is reported as 502.0 mg/dL and the Plasma glucose levels [2, 8] is reported as 411.2 mg/dL. The Plasma glucose levels [2, 9] was 668.8 mg/dL, the “Percentage HbA1c … Day 40” value [3] was 8.0% and the “Percentage HbA1c … Day 55” value [3] was 9.1%. The “Percentage HbA1c … Day 68” value [3] was 7.8%.
With “391172 (antisense lC*lT*dA*dG*dC*dC*dT*dC*dT*dG*dG*dA*lT*lT*lT) [compound 391172]” the ALT [1] was 32.8 IU/L, the AST [1] was 48.5 IU/L and the “Liver Weight” value [1] was 120 % Saline. For the same substance, the “Spleen Weight” value [1] was 112 % Saline, the “% PTEN mRNA levels in Fat” value (PTEN mRNA) was 101% and the “% PTEN mRNA levels in Kidney” value (PTEN mRNA) was 63%. The “% PTEN mRNA levels in Liver” value (PTEN mRNA) was 18%.
With “391871 (antisense [PALM-G]*eG*dT*dA*dC*dA*dT*dG*dG*dA*dA*dG*eT*e[5mC]) [compound 391871]” the “% Inhib” value (ApoB mRNA; single i.p. dose 0.16 umol/kg) was 0%, the “% Inhib” value (ApoB mRNA; single i.p. dose 0.4 umol/kg) was 5% and the “% Inhib” value (ApoB mRNA; single i.p. dose 1.0 umol/kg) was 18%.
In the case of “391872 (antisense [PALM-G]*lG*dT*dA*dC*dA*dT*dG*dG*dA*dA*dG*lT*l[5mC]) [compound 391872]”, the “% Inhib” value (ApoB mRNA; single i.p. dose 0.16 umol/kg) is reported as 18%, the “% Inhib” value (ApoB mRNA; single i.p. dose 0.4 umol/kg) is reported as 50% and the “% Inhib” value (ApoB mRNA; single i.p. dose 1.0 umol/kg) is reported as 92%.
For “392061 (antisense l[5mC]*lT*dA*dG*dC*dC*dT*dC*dT*dG*dG*dA*lT*lT) [compound 392061]”, the ALT [1] was 42.0 IU/L, the AST [1] was 189 IU/L and the “Liver Weight” value [1] was 123 % Saline. For the same substance, the “Spleen Weight” value [1] was 111 % Saline, the “% PTEN mRNA levels in Fat” value (PTEN mRNA) was 85% and the “% PTEN mRNA levels in Kidney” value (PTEN mRNA) was 61%. For the same substance, the “% PTEN mRNA levels in Liver” value (PTEN mRNA) was 24%.
Work on “ISIS 388626: SGLT2; GGCATGAGCTTC 2-8-2 MOE (antisense eG*eG*d[5mC]*dA*dT*dG*dA*dG*d[5mC]*dT*eT*e[5mC])” yielded a Plasma glucose levels [2, 6] of 434.7 mg/dL, a Plasma glucose levels [2, 7] of 300.5 mg/dL and a Plasma glucose levels [2, 8] of 219.8 mg/dL. For the same substance, the Plasma glucose levels [2, 9] was 379.8 mg/dL, the Plasma glucose levels [2, 10] was “significantly reduced” and the “% change in SGLT2 expression relative to saline” value (mouse SGLT2 mRNA [4]; 0.02 umol/kg i.p. twice per week for three weeks) was −45%. For the same substance, the “% change in SGLT2 expression relative to saline” value (mouse SGLT2 mRNA [4]; 0.1 umol/kg i.p. twice per week for three weeks) was −60%, the “% change in SGLT2 expression relative to saline” value (mouse SGLT2 mRNA [4]; 0.5 umol/kg i.p. twice per week for three weeks) was −80% and the “Percentage HbA1c … Day 40” value [3] was 6.6%. The “Percentage HbA1c … Day 55” value [3] was 5.9%, the “Percentage HbA1c … Day 68” value [3] was 4.0% and the HbA1C [3, 10] was “significantly reduced”.
In the case of “ISIS 391871: ApoB; GGTACATGGAAGTC 1-1-10-2 2′-(butylacetomido)-palmitamide/MOE/MOE Unmodified cytosines in gap (antisense [PALM-G]*eG*dT*dA*dC*dA*dT*dG*dG*dA*dA*dG*eT*e[5mC])”, the “estimated ED50” value (ApoB mRNA; single i.p. injection) is reported as 13.1 mg/kg.
In the case of “ISIS 392170: SGLT2; 1-10-1 Methyleneoxy BNA Gapmer (antisense lT*dG*dT*dT*d[5mC]*d[5mC]*dA*dG*d[5mC]*d[5mC]*d[5mC]*lA)”, the “SGLT2 mRNA, percent change relative to saline treated animals” value (mouse SGLT2 mRNA [5]; [11]) is reported as −23 percent change, the “SGLT2 mRNA, percent change relative to saline treated animals” value (mouse SGLT2 mRNA [5]; [12]) is reported as −54 percent change and the “SGLT2 mRNA, percent change relative to saline treated animals” value (mouse SGLT2 mRNA [5]; [13]) is reported as −69 percent change.
For “ISIS 392173: SGLT2; 2-8-2 Methyleneoxy BNA Gapmer (antisense lT*lG*dT*dT*d[5mC]*d[5mC]*dA*dG*d[5mC]*d[5mC]*l[5mC]*lA)”, the “SGLT2 mRNA, percent change relative to saline treated animals” value (mouse SGLT2 mRNA [5]; [11]) was −44 percent change, the “SGLT2 mRNA, percent change relative to saline treated animals” value (mouse SGLT2 mRNA [5]; [12]) was −57 percent change and the “SGLT2 mRNA, percent change relative to saline treated animals” value (mouse SGLT2 mRNA [5]; [13]) was −75 percent change.

Reference: patent US8188059B2, “Compounds and methods for modulating expression of GCGR” (Isis Pharmaceuticals, Inc., priority 2006, dated 2012)
